Measured values taken from US8741944B2, “Anti-infective agents against intracellular pathogens” (priority 2007, dated 2014).

Experiments:
[1] = tested on: MDA-MB-435 (Breast Cancer); assay: NCI DTP tumor cell line screen (SRB), MDA-MB-435
Experimental: (§1) For a typical screening experiment, cells are inoculated into 96 well microtiter plates in 100 μL at plating densities ranging from 5,000 to 40,000 cells/well depending on the doubling time of individual cell lines. After cell inoculation, the microtiter plates are incubated at 37° C., 5% CO2, 95% air and 100% relative humidity for 24 h prior to addition of experimental drugs.
(§2) After 24 h, two plates of each cell line are fixed in situ with TCA, to represent a measurement of the cell population for each cell line at the time of drug addition (Tz). Experimental drugs are solubilized in dimethyl sulfoxide at 400-fold the desired final maximum test concentration and stored frozen prior to use. At the time of drug addition, an aliquot of frozen concentrate is thawed and diluted to twice the desired final maximum test concentration with complete medium containing 50 μg/ml gentamicin. Additional four, 10-fold or ½ log serial dilutions are made to provide a total of five drug concentrations plus control. Aliquots of 100 μl of these different drug dilutions are added to the appropriate microtiter wells already containing 100 μl of medium, resulting in the required final drug concentrations.
(§3) Following drug addition, the plates are incubated for an additional 48 h at 37° C., 5% CO2, 95% air, and 100% relative humidity. For adherent cells, the assay is terminated by the addition of cold TCA. Cells are fixed in situ by the gentle addition of 50 μl of cold 50% (w/v) TCA (final concentration, 10% TCA) and incubated for 60 minutes at 4° C. The supernatant is discarded, and the plates are washed five times with tap water and air dried. Sulforhodamine B (SRB) solution (1001) at 0.4% (w/v) in 1% acetic acid is added to each well, and plates are incubated for 10 minutes at room temperature. After staining, unbound dye is removed by washing five times with 1% acetic acid and the plates are air dried. Bound stain is subsequently solubilized with 10 mM trizma base, and the absorbance is read on an automated plate reader at a wavelength of 515 nm. For suspension cells, the methodology is the same except that the assay is terminated by fixing settled cells at the bottom of the wells by gently adding 50 μl of 80% TCA (final concentration, 16% TCA). Using the seven absorbance measurements [time zero, (Tz), control growth, (C), and test growth in the presence of drug at the five concentration levels (Ti)], the percentage growth is calculated at each of the drug concentrations levels. Percentage growth inhibition is calculated as: [(Ti−Tz)/(C−Tz)]×100 for concentrations for which Ti>/=Tz [(Ti−Tz)/Tz]×100 for concentrations for which Ti<Tz
(§4) Three dose response parameters are calculated for each experimental agent. […] The drug concentration resulting in total growth inhibition (TGI) is calculated from Ti=Tz. […] Values are calculated for each of these three parameters if the level of activity is reached; however, if the effect is not reached or is exceeded, the value for that parameter is expressed as greater or less than the maximum or minimum concentration tested.

[2] = tested on: MCF7 (Breast Cancer); assay: NCI DTP tumor cell line screen (SRB), MCF7; settings: MCF7
Experimental: as §1, §2, §3, §4

[3] = tested on: CAKI-1 (Renal Cancer); assay: NCI DTP tumor cell line screen (SRB), CAKI-1
Experimental: as §1, §2, §3, §4

[4] = tested on: sixty human tumor cell lines; assay: NCI DTP sixty human tumor cell line screen (SRB), means over the panel
[5] = tested on: SK-MEL-2 (Melanoma); assay: NCI DTP tumor cell line screen (SRB), SK-MEL-2
Experimental: as §1, §2, §3, §4

[6] = tested on: SN12C (Renal Cancer); assay: NCI DTP tumor cell line screen (SRB), SN12C
Experimental: as §1, §2, §3, §4

[7] = tested on: LOX IMVI (Melanoma); assay: NCI DTP tumor cell line screen (SRB), LOX IMVI
Experimental: as §1, §2, §3, §4

[8] = tested on: COLO 205 (Colon Cancer); assay: NCI DTP tumor cell line screen (SRB), COLO 205
Experimental: as §1, §2, §3, §4

[9] = tested on: CCRF-CEM (Leukemia); assay: NCI DTP tumor cell line screen (SRB), CCRF-CEM
Experimental: as §1, §2, §3, §4

[10] = tested on: PC-3 (Prostate Cancer); assay: NCI DTP tumor cell line screen (SRB), PC-3
Experimental: as §1, §2, §3, §4

[11] = tested on: RPMI-8226 (Leukemia); assay: NCI DTP tumor cell line screen (SRB), RPMI-8226
Experimental: as §1, §2, §3, §4

[12] = tested on: SK-MEL-28 (Melanoma); assay: NCI DTP tumor cell line screen (SRB), SK-MEL-28
Experimental: as §1, §2, §3, §4

[13] = tested on: SW-620 (Colon Cancer); assay: NCI DTP tumor cell line screen (SRB), SW-620
Experimental: as §1, §2, §3, §4

[14] = tested on: HOP-62 (Non-Small Cell Lung Cancer); assay: NCI DTP tumor cell line screen (SRB), HOP-62
Experimental: as §1, §2, §3, §4

[15] = tested on: A498 (Renal Cancer); assay: NCI DTP tumor cell line screen (SRB), A498
Experimental: as §1, §2, §3, §4

[16] = tested on: RXF 393 (Renal Cancer); assay: NCI DTP tumor cell line screen (SRB), RXF 393; settings: RXF 393
Experimental: as §1, §2, §3, §4

NCC(=O)Nc1ccc(-n2nc(C(F)(F)F)cc2-c2ccc3c(ccc4ccccc43)c2)cc1 [Compound 70, 2-Amino-N-{4-[5-(2-phenanthrenyl)-3-(trifluoromethyl)-1H-pyrazol-1-yl]-phenyl}-acetamide]
TGI [1]: 3.14E−06
Mean Optical Densities ([1]; Log10 Concentration −4.0): 0.347
Mean Optical Densities ([1]; Log10 Concentration −5.0): 0.127
Percent Growth ([1]; Log10 Concentration −5.0): −69%
Mean Optical Densities ([1]; Log10 Concentration −6.0): 1.126
Percent Growth ([1]; Log10 Concentration −6.0): 68%
Mean Optical Densities ([1]; Log10 Concentration −7.0): 1.447
Percent Growth ([1]; Log10 Concentration −7.0): 98%
Mean Optical Densities ([1]; Log10 Concentration −8.0): 1.502
Percent Growth ([1]; Log10 Concentration −8.0): 103%
TGI [2]: 2.72E−06
Mean Optical Densities ([2]; Log10 Concentration −4.0): 0.255
Mean Optical Densities ([2]; Log10 Concentration −5.0): 0.196
Mean Optical Densities ([2]; Log10 Concentration −6.0): 0.982
Mean Optical Densities ([2]; Log10 Concentration −7.0): 1.541
Mean Optical Densities ([2]; Log10 Concentration −8.0): 1.566
TGI [3]: 2.27E−06
Mean Optical Densities ([3]; Log10 Concentration −4.0): 0.335
Mean Optical Densities ([3]; Log10 Concentration −5.0): 0.147
Percent Growth ([3]; Log10 Concentration −5.0): −75%
Mean Optical Densities ([3]; Log10 Concentration −6.0): 1.126
Percent Growth ([3]; Log10 Concentration −6.0): 42%
Mean Optical Densities ([3]; Log10 Concentration −7.0): 1.802
Percent Growth ([3]; Log10 Concentration −7.0): 95%
Mean Optical Densities ([3]; Log10 Concentration −8.0): 1.692
Percent Growth ([3]; Log10 Concentration −8.0): 87%
concentration range completely suppressing cell growth in a diverse range of tumor cell lines [4]: 3 to 5 µM
GI50 ([4]; read-out: mean GI50 among the sixty cell lines, two-day treatment): 1200 nM
mean TGI among the sixty cell lines ([4]; two-day treatment): 3200 nM
TGI [5]: 5.40E−06
Mean Optical Densities ([5]; Log10 Concentration −4.0): 0.330
Mean Optical Densities ([5]; Log10 Concentration −5.0): 0.289
Mean Optical Densities ([5]; Log10 Concentration −6.0): 0.885
Percent Growth ([5]; Log10 Concentration −6.0): 100%
Mean Optical Densities ([5]; Log10 Concentration −7.0): 0.956
Percent Growth ([5]; Log10 Concentration −7.0): 117%
Mean Optical Densities ([5]; Log10 Concentration −8.0): 0.943
Percent Growth ([5]; Log10 Concentration −8.0): 114%
TGI [6]: 3.51E−06
Mean Optical Densities ([6]; Log10 Concentration −4.0): 0.308
Mean Optical Densities ([6]; Log10 Concentration −5.0): 0.203
Percent Growth ([6]; Log10 Concentration −5.0): −65%
Mean Optical Densities ([6]; Log10 Concentration −6.0): 1.093
Percent Growth ([6]; Log10 Concentration −6.0): 78%
Mean Optical Densities ([6]; Log10 Concentration −7.0): 1.194
Percent Growth ([6]; Log10 Concentration −7.0): 94%
Mean Optical Densities ([6]; Log10 Concentration −8.0): 1.209
Percent Growth ([6]; Log10 Concentration −8.0): 96%
TGI [7]: 3.07E−06
Mean Optical Densities ([7]; Log10 Concentration −4.0): 0.352
Mean Optical Densities ([7]; Log10 Concentration −5.0): 0.176
Percent Growth ([7]; Log10 Concentration −5.0): −50%
Mean Optical Densities ([7]; Log10 Concentration −6.0): 0.742
Percent Growth ([7]; Log10 Concentration −6.0): 48%
Mean Optical Densities ([7]; Log10 Concentration −7.0): 0.974
Percent Growth ([7]; Log10 Concentration −7.0): 76%
Mean Optical Densities ([7]; Log10 Concentration −8.0): 1.204
Percent Growth ([7]; Log10 Concentration −8.0): 105%
Mean Optical Densities ([8]; Log10 Concentration −4.0): 0.239
Mean Optical Densities ([8]; Log10 Concentration −5.0): 0.104
Percent Growth ([8]; Log10 Concentration −5.0): −53%
Mean Optical Densities ([8]; Log10 Concentration −6.0): 0.916
Percent Growth ([8]; Log10 Concentration −6.0): 58%
Mean Optical Densities ([8]; Log10 Concentration −7.0): 1.252
Percent Growth ([8]; Log10 Concentration −7.0): 87%
Mean Optical Densities ([8]; Log10 Concentration −8.0): 1.286
Percent Growth ([8]; Log10 Concentration −8.0): 89%
TGI [9]: 2.49E−06
Mean Optical Densities ([9]; Log10 Concentration −4.0): 0.194
Mean Optical Densities ([9]; Log10 Concentration −5.0): 0.168
Percent Growth ([9]; Log10 Concentration −5.0): −43%
Mean Optical Densities ([9]; Log10 Concentration −6.0): 0.523
Percent Growth ([9]; Log10 Concentration −6.0): 28%
Mean Optical Densities ([9]; Log10 Concentration −7.0): 0.946
Percent Growth ([9]; Log10 Concentration −7.0): 81%
Percent Growth ([9]; Log10 Concentration −8.0): 74%
TGI [10]: 2.38E−06
Mean Optical Densities ([10]; Log10 Concentration −4.0): 0.108
Mean Optical Densities ([10]; Log10 Concentration −5.0): 0.055
Percent Growth ([10]; Log10 Concentration −5.0): −77%
Mean Optical Densities ([10]; Log10 Concentration −6.0): 0.593
Percent Growth ([10]; Log10 Concentration −6.0): 47%
Mean Optical Densities ([10]; Log10 Concentration −7.0): 0.763
Percent Growth ([10]; Log10 Concentration −7.0): 69%
Mean Optical Densities ([10]; Log10 Concentration −8.0): 0.910
Percent Growth ([10]; Log10 Concentration −8.0): 89%
TGI [11]: 2.84E−06
Mean Optical Densities ([11]; Log10 Concentration −4.0): 0.229
Mean Optical Densities ([11]; Log10 Concentration −5.0): 0.164
Percent Growth ([11]; Log10 Concentration −5.0): −51%
Mean Optical Densities ([11]; Log10 Concentration −6.0): 0.547
Percent Growth ([11]; Log10 Concentration −6.0): 42%
Mean Optical Densities ([11]; Log10 Concentration −7.0): 0.701
Percent Growth ([11]; Log10 Concentration −7.0): 72%
Mean Optical Densities ([11]; Log10 Concentration −8.0): 0.766
Percent Growth ([11]; Log10 Concentration −8.0): 85%
TGI [12]: 2.64E−06
Mean Optical Densities ([12]; Log10 Concentration −4.0): 0.218
Mean Optical Densities ([12]; Log10 Concentration −5.0): 0.071
Percent Growth ([12]; Log10 Concentration −5.0): −87%
Mean Optical Densities ([12]; Log10 Concentration −6.0): 1.130
Percent Growth ([12]; Log10 Concentration −6.0): 63%
Mean Optical Densities ([12]; Log10 Concentration −7.0): 1.320
Percent Growth ([12]; Log10 Concentration −7.0): 83%
Mean Optical Densities ([12]; Log10 Concentration −8.0): 1.426
Percent Growth ([12]; Log10 Concentration −8.0): 94%
TGI [13]: 4.23E−06
Mean Optical Densities ([13]; Log10 Concentration −4.0): 0.136
Mean Optical Densities ([13]; Log10 Concentration −5.0): 0.127
Percent Growth ([13]; Log10 Concentration −5.0): −32%
Mean Optical Densities ([13]; Log10 Concentration −6.0): 0.736
Percent Growth ([13]; Log10 Concentration −6.0): 54%
Mean Optical Densities ([13]; Log10 Concentration −7.0): 1.198
Percent Growth ([13]; Log10 Concentration −7.0): 100%
Mean Optical Densities ([13]; Log10 Concentration −8.0): 1.197
Percent Growth ([13]; Log10 Concentration −8.0): 100%
TGI [14]: 3.01E−06
Mean Optical Densities ([14]; Log10 Concentration −4.0): 0.217
Mean Optical Densities ([14]; Log10 Concentration −5.0): 0.155
Percent Growth ([14]; Log10 Concentration −5.0): −70%
Mean Optical Densities ([14]; Log10 Concentration −6.0): 1.075
Percent Growth ([14]; Log10 Concentration −6.0): 64%
Mean Optical Densities ([14]; Log10 Concentration −7.0): 1.330
Percent Growth ([14]; Log10 Concentration −7.0): 93%
Mean Optical Densities ([14]; Log10 Concentration −8.0): 1.310
Percent Growth ([14]; Log10 Concentration −8.0): 90%
TGI [15]: 5.75E−06
Mean Optical Densities ([15]; Log10 Concentration −4.0): 0.433
Mean Optical Densities ([15]; Log10 Concentration −5.0): 0.660
Percent Growth ([15]; Log10 Concentration −5.0): −30%
Mean Optical Densities ([15]; Log10 Concentration −6.0): 2.201
Percent Growth ([15]; Log10 Concentration −6.0): 95%
Mean Optical Densities ([15]; Log10 Concentration −7.0): 2.598
Percent Growth ([15]; Log10 Concentration −7.0): 126%
Mean Optical Densities ([15]; Log10 Concentration −8.0): 2.230
Percent Growth ([15]; Log10 Concentration −8.0): 98%
Mean Optical Densities ([16]; Log10 Concentration −4.0): 0.441
Mean Optical Densities ([16]; Log10 Concentration −5.0): 0.177
Percent Growth ([16]; Log10 Concentration −5.0): −56%
Mean Optical Densities ([16]; Log10 Concentration −6.0): 0.628
Percent Growth ([16]; Log10 Concentration −6.0): 56%
Mean Optical Densities ([16]; Log10 Concentration −7.0): 0.700
Mean Optical Densities ([16]; Log10 Concentration −8.0): 0.766
